{
  "source": "ChEMBL document CHEMBL1148565",
  "about": "(Bioorg Med Chem Lett, 2006)",
  "molecular_target": "Carbonic anhydrase 12 (Homo sapiens, UniProt O43570)",
  "sequence (O43570 whole entry)": "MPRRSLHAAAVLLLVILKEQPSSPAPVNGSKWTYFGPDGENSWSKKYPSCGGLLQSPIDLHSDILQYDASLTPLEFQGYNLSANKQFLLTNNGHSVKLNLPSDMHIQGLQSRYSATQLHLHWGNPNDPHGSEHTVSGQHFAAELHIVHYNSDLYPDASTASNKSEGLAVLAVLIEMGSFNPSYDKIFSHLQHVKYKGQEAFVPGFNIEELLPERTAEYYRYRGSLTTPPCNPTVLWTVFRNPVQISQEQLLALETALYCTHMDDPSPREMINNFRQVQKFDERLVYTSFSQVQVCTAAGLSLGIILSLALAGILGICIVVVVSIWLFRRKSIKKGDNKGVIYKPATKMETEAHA",
  "description": "Inhibitory activity against cloned human CA12",
  "data": [
    {"smiles": "Cc1ccc(-c2cc(C(F)(F)F)nn2-c2ccc(S(N)(=O)=O)cc2)cc1", "note": "[CELECOXIB]", "values": [
      {"measurement": "Ki", "value": 18, "unit": "nM"}
    ]}
  ]
}
